Data on 1 compound can be found in paper PMC5218480 (PLoS ONE, 2017).

The experiment deals with MV-4-11 cells. Description: Gene expression microarray analysis (Affymetrix PrimeView) and GSEA. Format: cell-based, human. More on the design: RFU PODN (11730768_x_at) / Fold change /veh PODN (11730768_x_at) / RFU LINC00158 (11744669_a_at) / Fold change /veh LINC00158 (11744669_a_at) / RFU DUSP10 (11751237_a_at) / Fold change /veh DUSP10 (11751237_a_at) / RFU ID3 (11757404_x_at) / Fold change /veh ID3 (11757404_x_at) / RFU PLEKHG5 (11737974_s_at) / Fold change /veh PLEKHG5 (11737974_s_at) / RFU LRRC4B (11730491_at) / Fold change /veh LRRC4B (11730491_at) / RFU GIMAP4 (11747438_a_at) / Fold change /veh GIMAP4 (11747438_a_at) / RFU KRT8 (11758183_x_at) / Fold change /veh KRT8 (11758183_x_at) / RFU CNN1 (11734310_a_at) / Fold change /veh CNN1 (11734310_a_at) / RFU VPS37D (11726825_at) / Fold change /veh VPS37D (11726825_at) / RFU C10orf10 (11716522_x_at) / Fold change /veh C10orf10 (11716522_x_at) / RFU KIR2DL2 /// KIR2DL4 /// KIR2DL5A /// KIR2DL5B /// KIR2DS1 /// KIR2DS2 /// KIR2DS3 /// KIR2DS4 /// KIR3DL3 /// KIR3DL3 /// KIR3DS1 (11738374_at) / Fold change /veh KIR2DL2 /// KIR2DL4 /// KIR2DL5A /// KIR2DL5B /// KIR2DS1 /// KIR2DS2 /// KIR2DS3 /// KIR2DS4 /// KIR3DL3 /// KIR3DL3 /// KIR3DS1 (11738374_at) / RFU C1QL1 (11718748_at) / Fold change /veh C1QL1 (11718748_at) / RFU TMPRSS4 (11747572_a_at) / Fold change /veh TMPRSS4 (11747572_a_at) / RFU HAMP (11756126_x_at) / Fold change /veh HAMP (11756126_x_at) / RFU RNFT2 (11725882_a_at) / Fold change /veh RNFT2 (11725882_a_at) / RFU NR4A2 (11747474_a_at) / Fold change /veh NR4A2 (11747474_a_at) / RFU ABCC12 (11746883_a_at) / Fold change /veh ABCC12 (11746883_a_at) / RFU TMEM136 (11760407_x_at) / Fold change /veh TMEM136 (11760407_x_at) / RFU CLDN22 /// WWC2 (11732394_at) / Fold change /veh CLDN22 /// WWC2 (11732394_at) / RFU HLA-DPB1 (11760878_x_at) / Fold change /veh HLA-DPB1 (11760878_x_at) / RFU SPINT1 (11716480_a_at) / Fold change /veh SPINT1 (11716480_a_at) / RFU GAP43 (11754022_s_at) / Fold change /veh GAP43 (11754022_s_at) / RFU A4GNT (11735810_at) / Fold change /veh A4GNT (11735810_at) / RFU PRB3 (11715151_x_at) / Fold change /veh PRB3 (11715151_x_at) / RFU TUBB4B (11761932_at) / Fold change /veh TUBB4B (11761932_at) / RFU CAPN14 (11732068_a_at) / Fold change /veh CAPN14 (11732068_a_at) / RFU TMCC2 (11721928_a_at) / Fold change /veh TMCC2 (11721928_a_at) / RFU IRGQ (11745062_a_at) / Fold change /veh IRGQ (11745062_a_at) / RFU FAM174B (11720279_a_at) / Fold change /veh FAM174B (11720279_a_at) / RFU TMPRSS4 (11748680_a_at) / Fold change /veh TMPRSS4 (11748680_a_at) / RFU FAM212B (11763350_a_at) / Fold change /veh FAM212B (11763350_a_at) / RFU PLEKHG5 (11743358_a_at) / Fold change /veh PLEKHG5 (11743358_a_at) / RFU ZSCAN30 (11745921_a_at) / Fold change /veh ZSCAN30 (11745921_a_at) / RFU CMKLR1 (11741424_a_at) / Fold change /veh CMKLR1 (11741424_a_at) / RFU LOC101060620 /// MAPK8IP1 (11723275_at) / Fold change /veh LOC101060620 /// MAPK8IP1 (11723275_at) / RFU SPTSSB (11747773_x_at) / Fold change /veh SPTSSB (11747773_x_at) / RFU PRSS12 (11739890_at) / Fold change /veh PRSS12 (11739890_at) / RFU BIN1 (11741810_x_at) / Fold change /veh BIN1 (11741810_x_at) / RFU WNT11 (11732464_a_at) / Fold change /veh WNT11 (11732464_a_at) / RFU C10orf10 (11716521_a_at) / Fold change /veh C10orf10 (11716521_a_at) / RFU C5orf56 (11738089_at) / Fold change /veh C5orf56 (11738089_at) / RFU CYB561 (11721691_x_at) / Fold change /veh CYB561 (11721691_x_at) / RFU ANKRD19P (11752326_a_at) / Fold change /veh ANKRD19P (11752326_a_at) / RFU OR2T12 /// OR2T33 /// OR2T8 (11738714_s_at) / Fold change /veh OR2T12 /// OR2T33 /// OR2T8 (11738714_s_at) / RFU VCAN (11748164_a_at) / Fold change /veh VCAN (11748164_a_at) / RFU JSRP1 (11732532_at) / Fold change /veh JSRP1 (11732532_at) / RFU KRTAP10-11 (11738290_x_at) / Fold change /veh KRTAP10-11 (11738290_x_at) / RFU MYO3A (11730013_a_at) / Fold change /veh MYO3A (11730013_a_at) / RFU EBF3 (11725865_a_at) / Fold change /veh EBF3 (11725865_a_at) / RFU CAMK2N1 (11719241_x_at) / Fold change /veh CAMK2N1 (11719241_x_at) / RFU C5orf56 (11738088_a_at) / Fold change /veh C5orf56 (11738088_a_at) / RFU OLFML3 (11715873_a_at) / Fold change /veh OLFML3 (11715873_a_at) / RFU LOC100653217 /// NTM (11731650_a_at) / Fold change /veh LOC100653217 /// NTM (11731650_a_at) / RFU MAPK11 (11762145_a_at) / Fold change /veh MAPK11 (11762145_a_at) / RFU FIZ1 (11724087_x_at) / Fold change /veh FIZ1 (11724087_x_at) / RFU OASL (11726364_x_at) / Fold change /veh OASL (11726364_x_at) / RFU SOX15 (11748057_x_at) / Fold change /veh SOX15 (11748057_x_at) / RFU CD79A (11719716_a_at) / Fold change /veh CD79A (11719716_a_at) / RFU HIST1H1D (11736915_at) / Fold change /veh HIST1H1D (11736915_at) / RFU CASKIN2 (11723855_a_at) / Fold change /veh CASKIN2 (11723855_a_at) / RFU LOC730098 (11760151_x_at) / Fold change /veh LOC730098 (11760151_x_at) / RFU OR4N2 (11742367_at) / Fold change /veh OR4N2 (11742367_at) / RFU PRRT2 (11749266_a_at) / Fold change /veh PRRT2 (11749266_a_at) / RFU SNX32 (11753110_a_at) / Fold change /veh SNX32 (11753110_a_at) / RFU CDHR5 (11726645_a_at) / Fold change /veh CDHR5 (11726645_a_at) / RFU RCAN1 (11760418_a_at) / Fold change /veh RCAN1 (11760418_a_at) / RFU FAM167A (11723789_a_at) / Fold change /veh FAM167A (11723789_a_at) / RFU FAM26E (11764081_at) / Fold change /veh FAM26E (11764081_at) / RFU ISYNA1 (11749810_s_at) / Fold change /veh ISYNA1 (11749810_s_at) / RFU ACY1 (11761880_at) / Fold change /veh ACY1 (11761880_at) / RFU 11764098_at / Fold change /veh 11764098_at / RFU SAMD14 (11745864_x_at) / Fold change /veh SAMD14 (11745864_x_at) / RFU NPB (11741838_a_at) / Fold change /veh NPB (11741838_a_at) / RFU TMPRSS6 (11731388_a_at) / Fold change /veh TMPRSS6 (11731388_a_at) / RFU KRTAP10-2 (11738614_at) / Fold change /veh KRTAP10-2 (11738614_at) / RFU ARHGAP8 /// PRR5-ARHGAP8 (11727945_x_at) / Fold change /veh ARHGAP8 /// PRR5-ARHGAP8 (11727945_x_at) / RFU KRTAP5-7 /// NADSYN1 (11734609_at) / Fold change /veh KRTAP5-7 /// NADSYN1 (11734609_at) / RFU RASL12 (11751679_a_at) / Fold change /veh RASL12 (11751679_a_at) / RFU CDKN2B (11736163_a_at) / Fold change /veh CDKN2B (11736163_a_at) / RFU PRF1 (11729649_at) / Fold change /veh PRF1 (11729649_at) / RFU, ZNF638 /// ZNF638-IT1 / Fold change vs veh, ZNF638 /// ZNF638-IT1 / RFU, PANK3 / Fold change vs veh, PANK3 / RFU, SH3YL1 / Fold change vs veh, SH3YL1 / RFU, ZEB2 / Fold change vs veh, ZEB2 / RFU, NRIP1 / Fold change vs veh, NRIP1 / RFU, PTTG1IP / Fold change vs veh, PTTG1IP / RFU, CAPN2 / Fold change vs veh, CAPN2 / RFU, MED14 / Fold change vs veh, MED14 / RFU, SNORA58 / Fold change vs veh, SNORA58 / RFU, C1orf63 / Fold change vs veh, C1orf63 / RFU, LRRFIP1 / Fold change vs veh, LRRFIP1 / RFU, NDUFAF7 / Fold change vs veh, NDUFAF7 / RFU, SLC12A2 / Fold change vs veh, SLC12A2 / RFU, IBTK / Fold change vs veh, IBTK / RFU, ESF1 / Fold change vs veh, ESF1 / Fold change vs veh, TMEM50B / RFU, TAOK1 / Fold change vs veh, TAOK1 / RFU, ACBD3 / Fold change vs veh, ACBD3 / RFU, TMA16 / Fold change vs veh, TMA16 / RFU, RWDD3 / Fold change vs veh, RWDD3 / RFU, BCAT1 / Fold change vs veh, BCAT1 / RFU, EDEM3 / Fold change vs veh, EDEM3 / RFU, TMEM33 / Fold change vs veh, TMEM33 / RFU, WDR75 / Fold change vs veh, WDR75 / RFU, AHCTF1 / Fold change vs veh, AHCTF1 / RFU, TFRC / Fold change vs veh, TFRC / RFU, ZDHHC17 / Fold change vs veh, ZDHHC17 / RFU, NOM1 / Fold change vs veh, NOM1 / RFU, ARL8B / Fold change vs veh, ARL8B / RFU, ZBTB11 / Fold change vs veh, ZBTB11 / RFU, TAMM41 / Fold change vs veh, TAMM41 / RFU, KIAA1704 /// LOC100996395 / Fold change vs veh, KIAA1704 /// LOC100996395 / RFU, ING1 / Fold change vs veh, ING1 / RFU, TRMT61B / Fold change vs veh, TRMT61B / RFU, FUBP3 / Fold change vs veh, FUBP3 / RFU, TP53 / Fold change vs veh, TP53 / RFU, TNKS2 / Fold change vs veh, TNKS2 / RFU, ZFP14 / Fold change vs veh, ZFP14 / RFU, ACTR2 / Fold change vs veh, ACTR2 / RFU, PPP3R1 / Fold change vs veh, PPP3R1 / RFU, PIK3R1 / Fold change vs veh, PIK3R1 / RFU, HNRNPA1 / Fold change vs veh, HNRNPA1 / RFU, RNF170 / Fold change vs veh, RNF170 / RFU, ZNF28 / Fold change vs veh, ZNF28 / RFU, RNGTT / Fold change vs veh, RNGTT / RFU, OGT / Fold change vs veh, OGT / RFU, BRD1 / Fold change vs veh, BRD1 / RFU, MARS / Fold change vs veh, MARS / RFU, ZNF655 / Fold change vs veh, ZNF655 / RFU, FAHD1 / Fold change vs veh, FAHD1 / RFU, BDP1 / Fold change vs veh, BDP1 / RFU, LRRCC1 / Fold change vs veh, LRRCC1 / RFU, ARID1A / Fold change vs veh, ARID1A / RFU, ZNF146 / Fold change vs veh, ZNF146 / RFU, ZNF330 / Fold change vs veh, ZNF330 / RFU, GPN3 / Fold change vs veh, GPN3 / RFU, C9orf123 / Fold change vs veh, C9orf123 / RFU, N4BP2L2 / Fold change vs veh, N4BP2L2 / RFU, ARFIP1 / Fold change vs veh, ARFIP1 / RFU, FAM179B / Fold change vs veh, FAM179B / RFU, BCL10 / Fold change vs veh, BCL10 / RFU, UHRF1BP1L / Fold change vs veh, UHRF1BP1L / RFU, BET1 / Fold change vs veh, BET1 / RFU, CNOT2 / Fold change vs veh, CNOT2 / RFU, ZNF268 / Fold change vs veh, ZNF268 / Fold change vs veh, ZNF507 / RFU, DGCR2 / Fold change vs veh, DGCR2 / RFU, WDSUB1 / Fold change vs veh, WDSUB1 / Fold change vs veh, HSP90B1 /// MIR3652 / RFU, ADSS / Fold change vs veh, ADSS / RFU, GK / Fold change vs veh, GK / RFU, ZNF148 / Fold change vs veh, ZNF148 / RFU, TAF9 / Fold change vs veh, TAF9 / RFU, SLC1A5 / Fold change vs veh, SLC1A5 / RFU, SLMO2 / Fold change vs veh, SLMO2 / RFU, ABCC4 / Fold change vs veh, ABCC4 / RFU, LOC101060439 /// RAP1B / Fold change vs veh, LOC101060439 /// RAP1B / RFU, RFX7 / Fold change vs veh, RFX7 / RFU, GTPBP10 / Fold change vs veh, GTPBP10 / RFU, CNEP1R1 / Fold change vs veh, CNEP1R1 / RFU, BIVM-ERCC5 /// ERCC5 / Fold change vs veh, BIVM-ERCC5 /// ERCC5 / RFU, ILF3 / Fold change vs veh, ILF3 / RFU 11762660_at / Fold change /veh 11762660_at / RFU VCAN (11757783_s_at) / Fold change /veh VCAN (11757783_s_at) / RFU DDX43 (11728927_at) / Fold change /veh DDX43 (11728927_at) / RFU KRT8 (11758188_x_at) / Fold change /veh KRT8 (11758188_x_at) / RFU NKD1 (11759106_at) / Fold change /veh NKD1 (11759106_at) / RFU SRD5A1 (11742802_a_at) / Fold change /veh SRD5A1 (11742802_a_at) / RFU TPSAB1 /// TPSB2 (11721975_s_at) / Fold change /veh TPSAB1 /// TPSB2 (11721975_s_at) / RFU GSTM3 (11746129_a_at) / Fold change /veh GSTM3 (11746129_a_at) / RFU IL23R (11737362_x_at) / Fold change /veh IL23R (11737362_x_at) / RFU TMEM51 (11727254_a_at) / Fold change /veh TMEM51 (11727254_a_at) / RFU PIWIL2 (11732686_x_at) / Fold change /veh PIWIL2 (11732686_x_at) / RFU ORM1 (11744905_x_at) / Fold change /veh ORM1 (11744905_x_at) / RFU CCDC152 (11743942_at) / Fold change /veh CCDC152 (11743942_at) / RFU ECM1 (11717891_a_at) / Fold change /veh ECM1 (11717891_a_at) / RFU IL23R (11748794_a_at) / Fold change /veh IL23R (11748794_a_at) / RFU TNFAIP8L3 (11732012_x_at) / Fold change /veh TNFAIP8L3 (11732012_x_at) / RFU MBOAT4 (11741988_at) / Fold change /veh MBOAT4 (11741988_at) / RFU 11764193_at / Fold change /veh 11764193_at / RFU TMEM53 (11763286_at) / Fold change /veh TMEM53 (11763286_at) / RFU MAGEB2 (11727129_at) / Fold change /veh MAGEB2 (11727129_at) / RFU TMEM200A (11744735_a_at) / Fold change /veh TMEM200A (11744735_a_at) / RFU CCDC152 (11751479_a_at) / Fold change /veh CCDC152 (11751479_a_at) / RFU FAM211A (11726209_a_at) / Fold change /veh FAM211A (11726209_a_at) / RFU RGS16 (11746705_a_at) / Fold change /veh RGS16 (11746705_a_at) / RFU VCAN (11755009_s_at) / Fold change /veh VCAN (11755009_s_at) / RFU RHOB (11743442_s_at) / Fold change /veh RHOB (11743442_s_at) / RFU RGS16 (11720943_a_at) / Fold change /veh RGS16 (11720943_a_at) / RFU RGS16 (11720944_at) / Fold change /veh RGS16 (11720944_at) / RFU, VPS4B / Fold change vs veh, VPS4B / RFU, CREB1 / Fold change vs veh, CREB1 / RFU, DNAJC13 / Fold change vs veh, DNAJC13 / RFU, GNAQ / Fold change vs veh, GNAQ / RFU, CDK5R1 / Fold change vs veh, CDK5R1 / RFU, ZRANB3 / Fold change vs veh, ZRANB3 / RFU, CUL4A / Fold change vs veh, CUL4A / RFU, CCNY / Fold change vs veh, CCNY / RFU, UFL1 / Fold change vs veh, UFL1 / RFU, COG3 / Fold change vs veh, COG3 / RFU, DIAPH2 / Fold change vs veh, DIAPH2 / RFU, SKA2 / Fold change vs veh, SKA2 / RFU, AFF3 / Fold change vs veh, AFF3 / RFU, LMF1 / Fold change vs veh, LMF1 / RFU, IPO11 / Fold change vs veh, IPO11 / RFU, DFFB / Fold change vs veh, DFFB / RFU, FOXP1 / Fold change vs veh, FOXP1 / RFU, CARD8 / Fold change vs veh, CARD8 / RFU, STRN3 / Fold change vs veh, STRN3 / RFU, ADK / Fold change vs veh, ADK / RFU, RASSF2 / Fold change vs veh, RASSF2 / RFU, WIPF1 / Fold change vs veh, WIPF1 / RFU, LARP1B / Fold change vs veh, LARP1B / RFU, RASA1 / Fold change vs veh, RASA1 / RFU, RB1 / Fold change vs veh, RB1 / RFU, PPFIA1 / Fold change vs veh, PPFIA1 / RFU, MAT2A / Fold change vs veh, MAT2A / RFU, CCT5 / Fold change vs veh, CCT5 / RFU, WDR92 / Fold change vs veh, WDR92 / RFU, CUX1 / Fold change vs veh, CUX1 / RFU, TTC7A / Fold change vs veh, TTC7A / RFU, TMEM135 / Fold change vs veh, TMEM135 / RFU, DEPTOR / Fold change vs veh, DEPTOR / RFU, CPM / Fold change vs veh, CPM / RFU, DNAJB6 / Fold change vs veh, DNAJB6 / RFU, CACNA2D3 / Fold change vs veh, CACNA2D3 / RFU, DTX4 / Fold change vs veh, DTX4 / RFU, TFCP2 / Fold change vs veh, TFCP2 / RFU, GMCL1 /// GMCL1P1 / Fold change vs veh, GMCL1 /// GMCL1P1 / RFU, AEBP2 / Fold change vs veh, AEBP2 / RFU, SNHG1 /// SNORD22 /// SNORD25 /// SNORD26 /// SNORD27 /// SNORD28 /// SNORD29 /// SNORD31 / Fold change vs veh, SNHG1 /// SNORD22 /// SNORD25 /// SNORD26 /// SNORD27 /// SNORD28 /// SNORD29 /// SNORD31 / Fold change (Aza/veh), C12orf56 (ProbeSet 11735607_a_at) / Fold change (ACY-1035/veh), C12orf56 (ProbeSet 11735607_a_at) / Fold change (Aza/veh), FGFR1OP (ProbeSet 11751329_s_at) / Fold change (ACY-1035/veh), FGFR1OP (ProbeSet 11751329_s_at) / Fold change (Aza/veh), VPS36 (ProbeSet 11739960_a_at) / Fold change (ACY-1035/veh), VPS36 (ProbeSet 11739960_a_at) / RFU SYPL1 (11715823_x_at) / Fold change /veh SYPL1 (11715823_x_at) / RFU IGFBP7 (11715501_s_at) / Fold change /veh IGFBP7 (11715501_s_at) / RFU REEP3 (11722064_at) / Fold change /veh REEP3 (11722064_at) / RFU IGLL1 (11728026_x_at) / Fold change /veh IGLL1 (11728026_x_at): dose or concentration left out as unconfirmed. The settings on record: MV-4-11 cells, 48 hours.

In the case of `Nc1ccc(-c2cccs2)cc1NC(=O)c1ccc2c(c1)cc(C1CC1)n2CCN1CCOCC1` [ACY-1035], the “RFU CCDC152 (11751479_a_at)” value came out at 4.13 RFU.
